Data: patent US8168647B2, “Vinblastine derivatives, their preparation, use and pharmaceutical compositions comprising the said derivatives” (Shanghai Institute of Materia Medica Chinese Academy of …, priority 2007, dated 2012)
Counter-ions that a name gives are not always drawn. Marks after values point to notes of the source that are not given here.

What was measured:
sarcoma 180 = assay: In vivo antitumor assay on Sarcoma 180 (S180) in mice; settings: for Average weight (g) At sacrifice / Tumor Weight (g) X ± SD: iv, d 1, 4
[1] = depending on its concentration and action time; read-out: IC50, in vitro activity; cited from earlier work
[2] = tested on: human non-small cell lung cancer (A549) xenografts; settings: mouse, in vivo
[3] = tested on: human cervical carcinoma cell line Hela; assay: In vitro cytotoxicity assay, Sulforhodamine B (SRB), Hela; type: cell-based; settings: Homo sapiens, HeLa; SRB assay, 72 hours incubation; ditartrate of all compounds used; read-out: Hela (IC50)
[4] = tested on: human non-small cell lung cancer (A549) xenografts; assay: Nude mice models bearing human non-small cell lung cancer (A549) xenografts
[5] = tested on: human non-small cell lung cancer cell line A-549; assay: In vitro cytotoxicity assay, Sulforhodamine B (SRB), A-549; type: cell-based; settings: Homo sapiens, A549; SRB assay, 72 hours incubation; ditartrate of all compounds used; read-out: A549 (IC50)

| SMILES | Average weight (g) At sacrifice (sarcoma 180; 40 mg/kg) | Tumor Weight (g) X ± SD (sarcoma 180; 40 mg/kg) | inhibition in vivo at 40 mg/kg (sarcoma 180; Mus musculus, Sarcoma-180, iv, read-out: Inhibition rate %, 40 mg/kg, iv, d 1, 4) | IC50 [1] | Body weight (g) dn [2] | IC50 [3] | Average weight (g) At sacrifice (sarcoma 180; 10 mg/kg) | Tumor Weight (g) X ± SD (sarcoma 180; 10 mg/kg) | inhibition in vivo at 10 mg/kg (sarcoma 180; Mus musculus, Sarcoma-180, iv, read-out: Inhibition rate %) | toxicity in the mice (in words) ([4]; iv, BM48 tartrate once at d0, vinorelbine tartrate twice at d0 and d4) | RTV x ± SD ([4]; mouse, in vivo) | T/C (%) ([4]; mouse, in vivo) | TV (mm^3) x ± SD dn ([4]; mouse, in vivo) | efficacy against A549 xenografts (in words) ([4]; mouse, in vivo, iv) | IC50 [5] |
| --- | --- | --- | --- | --- | --- | --- | --- | --- | --- | --- | --- | --- | --- | --- | --- |
| CC[C@]12C=CCN3CC[C@@]4(c5cc([C@@]6(C(=O)OC)C[C@@H]7C[C@@H](C(C)(F)F)CN(Cc8c6[nH]c6ccccc86)C7)c(OC)cc5N(C)[C@H]4[C@@](O)(C(=O)OC)[C@@H]1OC(C)=O)[C@@H]32 [Vinflunine, reference compound] | 28.4 g | 0.44 ± 0.13 g | 72.5% | 60 to 300 nM | – | – | – | – | – | – | – | – | – | – | – |
| CCC1=C[C@@H]2CN(C1)Cc1c([nH]c3ccccc13)[C@@](C(=O)OC)(c1cc3c(cc1OC)N(C)[C@H]1[C@@](O)(C(=O)OC)[C@H](OC(C)=O)[C@]4(CC)C=CCN5CC[C@]31[C@@H]54)C2 [Vinorelbine tartrate, vinorelbine tartrate, reference compound] | – | – | – | – | 16.4 g | 9.1 nM | 27.5 g | 0.60 ± 0.23 g | 62.5% | higher toxicity | 2.66 ± 1.18 | 24.1* % | 550 ± 206 mm^3 | a little better efficacy than BM48 tartrate | 23.1 nM |
